According to patent US11479537B2, “T-type calcium channel inhibitor” (KINKI UNIVERSITY, priority 2017, dated 2022):

Tests used:
[1] = test system: human T-type calcium channel; experiment: Whole-cell patch clamp measurement of T-type calcium channel inhibition (barium T-current); type: cell-based; conditions: for Ratio of IC50 value to IC50 value of 6-prenylnaringenin (%): IC50 as percentage of the IC50 of 6-prenylnaringenin, measured as in Example 1; for T-type calcium channel inhibitory action (in words): whole-cell patch clamp, in vitro; for Inhibition rate (%): EK293 cell forcibly expressing human T-type calcium channel, 6 cases
Procedure: Using a human kidney cell-derived cell line, an EK293 cell, in which a human T-type calcium channel was forcibly expressed, the inhibitory effect of 6-prenylnaringenin on the T-type calcium channel was measured by the whole cell patch clamp method.
In the whole-cell patch clamp method, the following solutions are used as an external solution and an internal solution, the holding potential is set to −80 mV, and the barium current was measured as an inward current flow upon a potential jump from −80 mV to −20 mV. Here, in order to eliminate the influence of the high threshold activated-calcium channel, a value obtained by subtracting the current at 150 ms after the start of stimulation from the peak current was used as a T-channel current (T-current) for data analysis.
External Solution Composition
Aqueous solution containing the following: • 97 mM N-methyl-D-glucamine (NMDG); • 10 mM BaCl2; • 10 mM 4-(2-hydroxyethyl)-1-piperazine ethanesulfonic acid (HEPES); • 40 mM tetraethylammonium chloride (TEA-Cl); and • 5 mM glucose • (pH 7.4). Internal Solution Composition
Aqueous solution containing the following: • 4 mM MgCl2; • 140 mM CsCl; • 10 mM HEPES; and • 5 mM glycol ether diamine tetraacetic acid (EGTA) • (pH 7.2).
The inhibitory effect of the compound of the present invention on the T-type calcium channel was measured in the same manner as in Example 1, except that the compound of the present invention was used instead of 6-prenylnaringenin.

[2] = test system: PSNL-induced hyperalgesia; experiment: Partial sciatic nerve ligation (PSNL)-induced hyperalgesia, pain threshold by von Frey method; type: in vivo, ddY male mice; conditions: 10 to 30 mg/kg intraperitoneally, mice 7 days after PSNL, versus vehicle group after PSNL
Procedure: PSNL-induced hyperalgesia was performed using ddY male mice under inhaled isoflurane anesthesia by incising the skin on the femur of the mouse and exposing ⅓ to ½ of the exposed sciatic nerve was completely ligated with a 8-0 suture. […] The pain threshold was measured by the von Frey method.
Compounds-40, 41, 45 and 47 were suspended in 5% aqueous carboxymethylcellulose and administered intraperitoneally using mice after 7 days of PSNL treatment, which is considered to be a chronic phase in which hyperalgesia is stable, and Pain thresholds were measured every minute. As controls, a group to which a solvent was administered after sham operation and a group to which a solvent and 6-prenylnaringenin were administered after induction of hyperalgesia by PNSL were provided.

SMILES	Ratio of IC50 value to IC50 value of 6-prenylnaringenin (%) [1] [%]	T-type calcium channel inhibitory action (in words) [1]	Effect on PSNL-induced hyperalgesia (pain threshold) [2]	other results
CC(C)=CCc1ccc2c(c1O)C(=O)CC(c1ccccc1O)O2 (stereo not shown) [Compound-43, 5-hydroxy-2-(2-hydroxy-phenyl)-6-(3-methyl-but-2-enyl)-chroman-4-one]	26.6			
CCC(=CCc1c(O)cc2c(c1O)C(=O)CC(c1ccccc1O)O2)CC (stereo not shown) [Compound-45, 6-(3-ethyl-pent-2-enyl)-5,7-dihydroxy-2-(2-hydroxy-phenyl)-chroman-4-one]	2.3	excellent T-type calcium channel inhibitory activity in vitro	significantly suppressed hyperalgesia	
O=C1CC(c2ccc(O)cc2)Oc2cc(O)c(CCC3CCCC3)c(O)c21 (stereo not shown) [Compound-47, 6-(2-cyclopentyl-ethyl)-5,7-dihydroxy-2-(4-hydroxy-phenyl)-chroman-4-one]	8.1	excellent T-type calcium channel inhibitory activity in vitro	significantly suppressed hyperalgesia	
CC(C)=CCc1c(O)cc2c(c1O)C(=O)CC(c1c(O)cccc1O)O2 (stereo not shown) [Compound-42, 2-(2,6-dihydroxy-phenyl)-5,7-dihydroxy-6-(3-methyl-but-2-enyl)-chroman-4-one]	72.3			
CCCC(=CCc1c(O)cc2c(c1O)C(=O)CC(c1ccc(O)cc1)O2)CCC (stereo not shown) [Compound-48, 5,7-dihydroxy-2-(4-hydroxy-phenyl)-6-(3-propyl-hex-2-enyl)-chroman-4-one]	54.8			
CCC(CC)CCc1c(O)cc2c(c1O)C(=O)CC(c1ccc(O)cc1)O2 (stereo not shown) [Compound-46, 6-(3-ethyl-pentyl)-5,7-dihydroxy-2-(4-hydroxy-phenyl)-chroman-4-one]	15.0			
CC(C)=CCc1c(O)cc2c(c1O)C(=O)CC(c1ccc(O)c(O)c1)O2 (stereo not shown) [Compound-36, 2-(3,4-dihydroxy-phenyl)-5,7-dihydroxy-6-(3-methyl-but-2-enyl)-chroman-4-one]	87.5			
CC(C)=CCc1c(O)cc2c(c1O)C(=O)CC(c1ccccc1O)O2 (stereo not shown) [Compound-33, 5,7-dihydroxy-2-(2-hydroxy-phenyl)-6-(3-methyl-but-2-enyl)-chroman-4-one]	12.2			
CC(C)=CCc1c(O)cc2c(c1O)C(=O)C[C@@H](c1ccc(O)cc1)O2 [6-prenylnaringenin, 6-Prenylnaringenin, reference compound]		excellent T-type calcium channel inhibitory action		IC50 ([1]; calculated by GraphPad Prism from the results of Example 1): 0.801 µM; Inhibition rate (%) ([1]; compound concentration 300 nM): 0%; Inhibition rate (%) ([1]; compound concentration 1000 nM): 82.7%; Inhibition rate (%) ([1]; compound concentration 3000 nM): 99.0%
O=C1CC(c2ccc(O)cc2)Oc2cc(O)c(CC=C3CCCC3)c(O)c21 (stereo not shown) [Compound-41, 6-(2-cyclopentylidene-ethyl)-5,7-dihydroxy-2-(4-hydroxy-phenyl)-chroman-4-one]	9.0	excellent T-type calcium channel inhibitory activity in vitro	significantly suppressed hyperalgesia	
CC(C)=CCc1c(O)cc2c(c1O)C(=O)CC(c1cccc(O)c1)O2 (stereo not shown) [Compound-34, 5,7-dihydroxy-2-(3-hydroxy-phenyl)-6-(3-methyl-but-2-enyl)-chroman-4-one]	12.5			
CC(C)CCc1c(O)cc2c(c1O)C(=O)CC(c1ccc(O)cc1)O2 (stereo not shown) [Compound-39, 5,7-dihydroxy-2-(4-hydroxy-phenyl)-6-(3-methyl-butyl)-chroman-4-one]	10.6			
CCC(=CCc1c(O)cc2c(c1O)C(=O)CC(c1ccc(O)cc1)O2)CC (stereo not shown) [Compound-40, 6-(3-ethyl-pent-2-enyl)-5,7-dihydroxy-2-(4-hydroxy-phenyl)-chroman-4-one]	7.7	excellent T-type calcium channel inhibitory activity in vitro	significantly suppressed hyperalgesia	
